Data taken from PubChem BioAssay AID2060342 (Molecular Pharmacology Branch, DTP, NCI, 2025).

Tested on: 171881-019-R-J1-PDC multicell spheroid viability
Test: Anticancer human tumor 171881-019-R-J1-PDC patient-derived invasive breast carcinoma cell line growth inhibition [IpAb]
Conditions: for IC50: curve of first compound; for viability, T/C: stronger effect = lower value
Text: Combinatorial screen of targeted agents with ipatasertib and abemaciclib in multi-cell type tumor spheroids
A high-throughput screen of multi-cell type tumor spheroids was designed to identify active combinations of targeted small molecules and ipatasertib or abemaciclib. Complex spheroids include a stromal component modeled by human endothelial cells (HUVEC) and fibroblasts modeled by human mesenchymal stem cells (MSCs). The concentration ranges selected for each drug and investigational agent were based upon clinically achievable concentrations if the clinical Cmax of the agent was known.
Compounds. The drugs and investigational agents: ipatasertib (NSC767898), abemaciclib(NSC768073), selumetinib (NSC741078), trametinib (758246), adavosertib (NSC754352), everolimus (NSC733504), sapanisertib (NSC764658), vemurafenib (NSC761431), venetoclax (NSC766270), copanlisib (NSC809693), apelisib (NSC765974), palbociblib (NSC758247), vemurafenib (NSC761431), dabrafenib (NSC764134), ravoxertinib (NSC781343), BMS-387032 (NSC767048), sotorasib (NSC818433), talazoparib (NSC767125) and afursertib (NSC778305), were obtained from the National Cancer Institute (NCI) Developmental Therapeutics Program Chemical Repository. The FDA-approved anticancer drug set is available from the NCI Developmental Therapeutics Program. […] The stock solutions were prepared in dimethyl sulfoxide (DMSO, Sigma-Aldrich, St. Louis, MO, cat. D2650) at 800-fold the tested concentration and stored at -70 degrees C prior to their use. All drugs and investigational agents were tested over a range starting from a high concentration at or near the clinical Cmax and decreasing in half-log increments. If the clinical Cmax for an agent had not been determined, the highest concentration tested was 10 microM.
NCI60 Cell Culture. NCI60 cell lines were obtained from the NCI Developmental Therapeutics Program Tumor Repository. For each lot of cells, the Repository performed Applied Biosystems AmpFLSTR Identifiler testing with PCR amplification to confirm consistency with the published Identifier STR profile for each cell line. Cells were kept in continuous culture for no more than 20 passages. The optimal seeding densities for each of the cell lines at each time point assessed were determined prior to performing the concentration response studies. Briefly, the NCI60 human tumor lines were grown as monolayers in RPMI 1640 medium supplemented with 10% FBS and 2 mmol/L L-glutamine.
An additional 9 lines were from the NCI60 cell line panel including MDA-MB-231 breast carcinoma, MDA-MB-468 breast carcinoma, MCF7 breast carcinoma, Hs578T breast carcinoma, MALME-3M melanoma, SK-MEL-2 melanoma, SK-OV-3 ovarian carcinoma, DU-145 prostate carcinoma, PC-3 prostate carcinoma, all cell lines along with major genetic alterations are listed on Table 2. Pooled donor human umbilical vein endothelial cells (HUVEC, Lonza, cat. CC-2519) and human mesenchymal stem cells (hMSC, Lonza, cat. PT-2501) were purchased from Lonza (Walkersville, MD).
PDMR cell lines were grown in complete medium (DC medium): Dulbecco's modified Eagle's medium (DMEM)/F12 supplemented with 5% fetal bovine serum (FBS), 2 mM L-glutamine, 100 U/mL penicillin and 100 µg/ml streptomycin, 0.4 µg/ml hydrocortisone, 10 ng/ml epidermal growth factor (EGF) recombinant human protein, 24 µg/mL adenine, and 0.1 mg/mL primocin. During culture from frozen stock vials, PDMR cells were cultured in the same medium containing 10 µM Y-27632 (see Table 3). The PDCs were cultured in complete DMEM/F12 media without 10 microM Y-27632 dihydrochloride for at least two passages prior to the screen. The pooled donor HUVEC and hMSC were cultured in endothelial cell growth medium 2 (PromoCell, Heidelberg, Germany, cat. C-22011) and mesenchymal stem cell growth medium 2 (PromoCell, cat. C-28009), respectively. For all experiments, HUVEC and hMSC were used at passages </=5.
[…]

[1] = second compound 0.1 µM, first compound 0.0316 µM
[2] = second compound 0.1 µM, first compound 0.1 µM
[3] = second compound 0.1 µM, first compound 0.316 µM
[4] = second compound 0.1 µM, first compound 1 µM
[5] = second compound 0.1 µM, first compound 3.16 µM
[6] = second compound 0.1 µM, first compound 10 µM
[7] = second compound 0.316 µM, first compound 0.0316 µM
[8] = second compound 0.316 µM, first compound 0.1 µM
[9] = second compound 0.316 µM, first compound 0.316 µM
[10] = second compound 0.316 µM, first compound 1 µM
[11] = second compound 0.316 µM, first compound 3.16 µM
[12] = second compound 0.316 µM, first compound 10 µM
[13] = second compound 1 µM, first compound 0.0316 µM
[14] = second compound 1 µM, first compound 0.1 µM
[15] = second compound 1 µM, first compound 0.316 µM
[16] = second compound 1 µM, first compound 1 µM
[17] = second compound 1 µM, first compound 3.16 µM
[18] = second compound 1 µM, first compound 10 µM
[19] = second compound 3.16 µM, first compound 0.0316 µM
[20] = second compound 3.16 µM, first compound 0.1 µM
[21] = second compound 3.16 µM, first compound 0.316 µM
[22] = second compound 3.16 µM, first compound 1 µM
[23] = second compound 3.16 µM, first compound 3.16 µM
[24] = second compound 3.16 µM, first compound 10 µM
[25] = second compound 10 µM, first compound 0.0316 µM
[26] = second compound 10 µM, first compound 0.1 µM
[27] = second compound 10 µM, first compound 0.316 µM
[28] = second compound 10 µM, first compound 1 µM
[29] = second compound 10 µM, first compound 3.16 µM
[30] = second compound 10 µM, first compound 10 µM
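Also: spheroids exposed to the agents for seven days before readout.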

Compound | IC50 (second compound 0.1 µM) | IC50 (second compound 0.316 µM) | IC50 (second compound 1 µM) | IC50 (second compound 3.16 µM) | IC50 (second compound 10 µM) | viability, T/C [1] | viability, T/C [2] | viability, T/C [3] | viability, T/C [4] | viability, T/C [5] | viability, T/C [6] | viability, T/C [7] | viability, T/C [8] | viability, T/C [9] | viability, T/C [13] | viability, T/C [14] | viability, T/C [19] | viability, T/C [20] | viability, T/C [25] | viability, T/C [26] | also measured
C=CCn1c(=O)c2cnc(Nc3ccc(N4CCN(C)CC4)cc3)nc2n1-c1cccc(C(C)(C)O)n1 + CC(C)NCC(C(=O)N1CCN(c2ncnc3c2C(C)CC3O)CC1)c1ccc(Cl)cc1 | 727 nM | 354 nM | < 31.6 nM | < 31.6 nM | < 31.6 nM | 116% | 118% | 114% | 25.6% | 22.1% | 20.3% | 87.3% | 80.3% | 54% | 26.4% | 23.8% | 9.36% | 8.13% | 5.29% | 4.04% | viability, T/C [10]: 17.4%; viability, T/C [11]: 15.6%; viability, T/C [12]: 16.4%; viability, T/C [15]: 16.5%; viability, T/C [16]: 9.22%; viability, T/C [17]: 10.4%; viability, T/C [18]: 10.4%; viability, T/C [21]: 6.23%; viability, T/C [22]: 5.35%; viability, T/C [23]: 7.31%; viability, T/C [24]: 8.03%; viability, T/C [27]: 3.45%; viability, T/C [28]: 4.09%; viability, T/C [29]: 4.97%; viability, T/C [30]: 4.41%
CC(C)n1nc(-c2ccc3oc(N)nc3c2)c2c(N)ncnc21 + CC(C)NCC(C(=O)N1CCN(c2ncnc3c2C(C)CC3O)CC1)c1ccc(Cl)cc1 | 3.65 nM | 0.877 nM | < 0.316 nM | < 0.316 nM | < 0.316 nM | 2.88% | 2% |  |  |  |  | 1.96% | 1.7% |  | 1.26% | 1.29% | 1.09% | 0.93% | 0.84% | 1% | viability, T/C (second compound 0.1 µM, first compound 0.000316 µM): 116%; viability, T/C (second compound 0.1 µM, first compound 0.001 µM): 101%; viability, T/C (second compound 0.1 µM, first compound 0.00316 µM): 56.6%; viability, T/C (second compound 0.1 µM, first compound 0.01 µM): 11.2%; viability, T/C (second compound 0.316 µM, first compound 0.000316 µM): 69.3%; viability, T/C (second compound 0.316 µM, first compound 0.001 µM): 47.4%; viability, T/C (second compound 0.316 µM, first compound 0.00316 µM): 16.7%; viability, T/C (second compound 0.316 µM, first compound 0.01 µM): 3.76%; viability, T/C (second compound 1 µM, first compound 0.000316 µM): 20%; viability, T/C (second compound 1 µM, first compound 0.001 µM): 9.02%; viability, T/C (second compound 1 µM, first compound 0.00316 µM): 5.13%; viability, T/C (second compound 1 µM, first compound 0.01 µM): 2.23%; viability, T/C (second compound 3.16 µM, first compound 0.000316 µM): 8.5%; viability, T/C (second compound 3.16 µM, first compound 0.001 µM): 4.98%; viability, T/C (second compound 3.16 µM, first compound 0.00316 µM): 2.85%; viability, T/C (second compound 3.16 µM, first compound 0.01 µM): 1.62%; viability, T/C (second compound 10 µM, first compound 0.000316 µM): 5.26%; viability, T/C (second compound 10 µM, first compound 0.001 µM): 3.35%; viability, T/C (second compound 10 µM, first compound 0.00316 µM): 2.04%; viability, T/C (second compound 10 µM, first compound 0.01 µM): 1.47%
CC1(C)CCC(CN2CCN(c3ccc(C(=O)NS(=O)(=O)c4ccc(NCC5CCOCC5)c([N+](=O)[O-])c4)c(Oc4cnc5[nH]ccc5c4)c3)CC2)=C(c2ccc(Cl)cc2)C1 + CC(C)NCC(C(=O)N1CCN(c2ncnc3c2C(C)CC3O)CC1)c1ccc(Cl)cc1 | 5670 nM | 2840 nM | < 31.6 nM | < 31.6 nM | < 31.6 nM | 136% | 114% | 120% | 107% | 84.3% | 18.7% | 103% | 96.8% | 83.1% | 37.2% | 31.9% | 10.9% | 11.4% | 8.52% | 5.8% | viability, T/C [10]: 71.3%; viability, T/C [11]: 48.7%; viability, T/C [12]: 14.8%; viability, T/C [15]: 34.8%; viability, T/C [16]: 32.3%; viability, T/C [17]: 30.3%; viability, T/C [18]: 12.3%; viability, T/C [21]: 11.3%; viability, T/C [22]: 11.5%; viability, T/C [23]: 12.6%; viability, T/C [24]: 5.33%; viability, T/C [27]: 5.75%; viability, T/C [28]: 6.5%; viability, T/C [29]: 5.63%; viability, T/C [30]: 2.85%
CCCS(=O)(=O)Nc1ccc(F)c(C(=O)c2c[nH]c3ncc(-c4ccc(Cl)cc4)cc23)c1F + CC(C)NCC(C(=O)N1CCN(c2ncnc3c2C(C)CC3O)CC1)c1ccc(Cl)cc1 | > 10000 nM | > 10000 nM | < 31.6 nM | < 31.6 nM | < 31.6 nM | 112% | 128% | 110% | 111% | 112% | 90.8% | 90.3% | 91.5% | 92.5% | 36.9% | 39.9% | 12.8% | 13.4% | 7.7% | 7.32% | viability, T/C [10]: 97.8%; viability, T/C [11]: 110%; viability, T/C [12]: 100%; viability, T/C [15]: 38.9%; viability, T/C [16]: 41.4%; viability, T/C [17]: 47.2%; viability, T/C [18]: 53.7%; viability, T/C [21]: 14.2%; viability, T/C [22]: 14.5%; viability, T/C [23]: 21%; viability, T/C [24]: 24.1%; viability, T/C [27]: 8.04%; viability, T/C [28]: 8.61%; viability, T/C [29]: 10.4%; viability, T/C [30]: 11%
